This is an account of results in paper PMC4311625, “Structural determinants for binding to angiotensin converting enzyme 2 (ACE2) and angiotensin receptors 1 and 2” (Frontiers in Pharmacology, 2015).

Where two headings read alike, the source gives them in different places. Peptide text beside a SMILES is read from it.

This assay concerns the target ACE2 (Homo sapiens, UniProt Q9BYF1). The experiment in a line: ACE2 quenched fluorescence substrate (QFS) inhibition assay. Particulars: for inhibition at 10 µM: read-out: ACE2 inhibition of terminally modified IHPF analogs, 10 μM (Table 3, in brackets), peptide 10 μM. Format: biochemical. The protocol:
Angiotensin converting enzyme 2 QFS assays were performed for 1 h in 50 uM QFS, 1 M NaCl, 100 mM Tris-Cl, pH 6.5 at 37∘C on a BMG LabTechnologies (Offenburg, Germany), FLUOStar Optima in a 96 well-plate. Subsequent data analysis determined the inhibition of native AngII, its analogs and C-terminal peptides compared to the ACE2 QFS substrate [MCA-APK(DNP)-OH, [Vickers et al., 2002]]. […] Three controls were included in each ACE2 QFS assay; AngII (100 and 10 μM), IHPF (100 μM) and a known ACE2 inhibitor (1 nM; Millennium Pharmaceuticals, Cambridge, MA, USA). QFS assay results were accepted when ACE2 inhibition by AngII (10 μM) was 80 ± 5%, IHPF was 65 ± –5% and the ([Qian et al., 1999]) ‘Millennium Inhibitor’ was 70 ± –5%. Acceptable coefficients of variation (CV; standard deviation/mean × 100) for sample triplicates were <7%.
A library of 40 tetrapeptides based on the four C-terminal residues of Ang II (Ile-His-Pro-Phe/IHPF) was generated and screened for ACE2 binding at 100 μM in order to identify key residues of the C-terminus of Ang II involved in binding to the ACE2 active site. […] Several substitutions (Val, Tyr, Ala, Gly, Phe, Trp, Pro, His, Ile, and Leu) were made in order to further probe the highly hydrophobic and cyclic specificity of the C-terminus of Ang II. A β-napthalene amino acid (Nth) derivative was used as a highly hydrophobic non-natural cyclic residue substitute, and Arg and Lys were substituted for histidine at the second position from the N-terminus of the tetrapeptide to determine if positive charge or other structural or positional requirements were important.

[1] abbreviates: read-out: ACE2 inhibition of terminally modified IHPF analogs, 100 μM (Table 3), peptide 100 μM, 50 uM QFS, 1 M NaCl, 100 mM Tris-Cl pH 6.5, 37 °C, 1 h.
Setting [2] is: pH 6.5, read-out: ACE2 inhibition of terminally modified IHPF analogs, 100 μM (Table 3).
The mark [3] stands for this setting: peptide 100 μM, 50 uM QFS MCA-APK(DNP)-OH, 1 M NaCl, 100 mM Tris-Cl pH 6.5, 37 °C, 1 h, fluorescence, triplicate, read-out: ACE2 inhibition of single substitution analogs of the C-terminal of AngII (Table 1).
Setting [4] is: peptide 100 μM, 50 uM QFS, 1 M NaCl, 100 mM Tris-Cl pH 6.5, 37 °C, 1 h, triplicate, read-out: Inhibition (%) of ACE2, single and multiple residue substitution analogs (Table 2).
[5] abbreviates: 50 uM QFS, 1 M NaCl, 100 mM Tris-Cl pH 6.5, 37 °C, 1 h.

Chain of ACE2 (Q9BYF1 18-805, species assumed): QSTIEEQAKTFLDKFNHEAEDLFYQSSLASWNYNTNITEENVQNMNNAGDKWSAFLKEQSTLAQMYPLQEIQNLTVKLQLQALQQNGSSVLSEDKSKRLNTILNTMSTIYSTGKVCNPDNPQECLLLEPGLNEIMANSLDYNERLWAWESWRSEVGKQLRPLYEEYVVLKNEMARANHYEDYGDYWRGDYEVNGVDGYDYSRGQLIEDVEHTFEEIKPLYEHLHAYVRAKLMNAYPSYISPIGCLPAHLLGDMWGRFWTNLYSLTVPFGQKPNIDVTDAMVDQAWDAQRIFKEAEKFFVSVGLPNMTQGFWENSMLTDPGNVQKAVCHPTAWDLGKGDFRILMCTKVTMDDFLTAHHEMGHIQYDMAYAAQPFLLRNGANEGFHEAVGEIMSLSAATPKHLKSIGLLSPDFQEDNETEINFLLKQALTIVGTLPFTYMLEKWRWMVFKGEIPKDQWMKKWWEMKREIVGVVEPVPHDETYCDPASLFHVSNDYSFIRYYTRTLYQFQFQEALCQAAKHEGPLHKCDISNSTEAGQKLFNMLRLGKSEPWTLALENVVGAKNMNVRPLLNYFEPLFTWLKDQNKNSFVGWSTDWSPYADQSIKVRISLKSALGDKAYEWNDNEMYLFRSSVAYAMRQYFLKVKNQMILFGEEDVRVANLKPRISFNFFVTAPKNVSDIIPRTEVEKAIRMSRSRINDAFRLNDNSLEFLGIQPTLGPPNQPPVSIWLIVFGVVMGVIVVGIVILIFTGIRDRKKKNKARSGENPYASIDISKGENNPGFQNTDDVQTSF

Usually inhibition stands for how much of the control response was suppressed. As for `CC(=O)N1CCC[C@H]1C(=O)N[C@@H](Cc1ccc(O)cc1)C(=O)N[C@H](C(=O)N[C@@H](Cc1ccccc1)C(N)=O)C(C)C` [N-acetylated/C-amidated PYVF] (Ac-PYVF-NH2), the inhibition at 100 µM under setting [1] came out at 25%.
As to `CC(=O)N[C@H](C(=O)N[C@@H](Cc1ccc(O)cc1)C(=O)N1CCC[C@H]1C(=O)N[C@@H](Cc1ccccc1)C(N)=O)C(C)C` [N-acetylated/C-amidated VYPF] (Ac-VYPF-NH2), the inhibition at 100 µM under setting [2] turned out to be 30%.
`CC[C@H](C)[C@H](N)C(=O)N[C@@H](Cc1c[nH]cn1)C(=O)N1CCC[C@H]1C(=O)N[C@@H](Cc1ccc(O)cc1)C(=O)O` [IHPY] (H-IHPY-OH): the inhibition at 100 µM under setting [3] was 50%.
Take `CC(C)[C@H](NC(=O)[C@H](Cc1ccc(O)cc1)NC(=O)[C@@H]1CCCN1)C(=O)N[C@@H](Cc1ccccc1)C(=O)O` [PYVF] (H-PYVF-OH): the inhibition at 100 µM is 94% under setting [4] and 94% under setting [1]. Further, the inhibition at 10 µM under setting [5] was 51%.
Turning to `O=C(O)[C@H](Cc1ccccc1)NC(=O)[C@@H]1CCCN1C(=O)[C@H](Cc1c[nH]cn1)NC(=O)[C@@H]1CCCN1` [PHPF] (H-PHPF-OH), the inhibition at 100 µM under setting [3] was 78% and the inhibition at 100 µM under setting [1] was 81%. For the same compound, under setting [5], the inhibition at 10 µM was found to be 20%.
Turning to `CC[C@H](C)[C@H](N)C(=O)N[C@@H](Cc1c[nH]cn1)C(=O)N1CCC[C@H]1C(=O)N[C@@H](Cc1c[nH]c2ccccc12)C(=O)O` [IHPW] (H-IHPW-OH), under setting [3], the inhibition at 100 µM was found to be 57%.
For `CC[C@H](C)[C@H](N)C(=O)N[C@@H](Cc1c[nH]cn1)C(=O)N1CCC[C@H]1C(=O)N[C@@H](Cc1ccccc1)C(=O)O` [IHPF, Ile-His-Pro-Phe, reference compound] (H-IHPF-OH), the inhibition at 100 µM was found to be 62% under setting [3] and 66% under setting [1]. Further, the inhibition at 10 µM under setting [5] was found to be 22%.
As to `CC[C@H](C)[C@H](N)C(=O)N1CCC[C@H]1C(=O)N1CCC[C@H]1C(=O)N[C@@H](Cc1ccccc1)C(=O)O` [IPPF] (H-IPPF-OH), under setting [3], the inhibition at 100 µM came to 0%.
In the case of `N[C@@H](Cc1c[nH]cn1)C(=O)N[C@@H](Cc1c[nH]cn1)C(=O)N1CCC[C@H]1C(=O)N[C@@H](Cc1ccccc1)C(=O)O` [HHPF] (H-HHPF-OH), the inhibition at 100 µM under setting [3] came out at 12%.
For the compound `CC[C@H](C)[C@H](NC(C)=O)C(=O)N[C@@H](Cc1ccc(O)cc1)C(=O)N1CCC[C@H]1C(=O)N[C@@H](Cc1ccccc1)C(=O)O` [N-acetylated IYPF] (Ac-IYPF-OH), the inhibition at 10 µM under setting [5] is 62%. In addition, the inhibition at 100 µM under setting [1] is 93%.
On to `CC(=O)N1CCC[C@H]1C(=O)N[C@@H](Cc1c[nH]cn1)C(=O)N1CCC[C@H]1C(=O)N[C@@H](Cc1ccccc1)C(N)=O` [N-acetylated/C-amidated PHPF] (Ac-PHPF-NH2), for which, under setting [1], the inhibition at 100 µM amounted to 8%.
As to `CC[C@H](C)[C@H](N)C(=O)N[C@@H](Cc1c[nH]cn1)C(=O)N1CCC[C@H]1C(=O)NCC(=O)O` [IHPG] (H-IHPG-OH), under setting [3], the inhibition at 100 µM amounted to 41%.
Turning to `CC(C)[C@H](N)C(=O)N[C@@H](Cc1c[nH]cn1)C(=O)N[C@H](C(=O)N[C@@H](Cc1ccccc1)C(N)=O)C(C)C` [C-amidated VHVF] (H-VHVF-NH2), the inhibition at 10 µM under setting [5] turned out to be 40%. Besides, the inhibition at 100 µM under setting [1] amounted to 86%.
As for `CC[C@H](C)[C@H](N)C(=O)N[C@@H](Cc1c[nH]cn1)C(=O)N[C@@H](Cc1c[nH]cn1)C(=O)N[C@@H](Cc1ccccc1)C(=O)O` [IHHF] (H-IHHF-OH), under setting [3], the inhibition at 100 µM was found to be 14%.
Turning to `CC[C@H](C)[C@H](N)C(=O)N[C@@H](Cc1c[nH]cn1)C(=O)N1CCC[C@H]1C(=O)N[C@@H](Cc1c[nH]cn1)C(=O)O` [IHPH] (H-IHPH-OH), the inhibition at 100 µM under setting [3] was determined as 54%.
Consider `CC(C)[C@H](N)C(=O)N[C@@H](Cc1ccc(O)cc1)C(=O)N[C@H](C(=O)N[C@@H](Cc1ccccc1)C(=O)O)C(C)C` [VYVF] (H-VYVF-OH), for which the inhibition at 100 µM under setting [4] worked out at 78%.
On to `CC(=O)N[C@H](C(=O)N[C@@H](Cc1ccc(O)cc1)C(=O)N1CCC[C@H]1C(=O)N[C@@H](Cc1ccccc1)C(=O)O)C(C)C` [N-acetylated VYPF] (Ac-VYPF-OH), for which the inhibition at 10 µM under setting [5] came out at 79%. Also, the inhibition at 100 µM under setting [1] came to 98%.
Consider `CC[C@H](C)[C@H](N)C(=O)N[C@@H](Cc1c[nH]c2ccccc12)C(=O)N1CCC[C@H]1C(=O)N[C@@H](Cc1ccccc1)C(=O)O` [IWPF] (H-IWPF-OH), for which the inhibition at 100 µM under setting [3] came out at 40%.
The same measure, in the same setting: next, `CC[C@H](C)[C@H](N)C(=O)N[C@@H](Cc1c[nH]cn1)C(=O)NCC(=O)N[C@@H](Cc1ccccc1)C(=O)O` [IHGF] (H-IHGF-OH): 0%.
As to `CC[C@H](C)[C@H](N)C(=O)N[C@@H](Cc1ccc(O)cc1)C(=O)N1CCC[C@H]1C(=O)N[C@@H](Cc1ccccc1)C(N)=O` [C-amidated IYPF] (H-IYPF-NH2), the inhibition at 100 µM under setting [2] came out at 8%.
As to `CC[C@H](C)[C@H](NC(C)=O)C(=O)N[C@@H](Cc1ccc(O)cc1)C(=O)N1CCC[C@H]1C(=O)N[C@@H](Cc1ccccc1)C(N)=O` [N-acetylated/C-amidated IYPF] (Ac-IYPF-NH2), the inhibition at 100 µM under setting [1] came out at 18%.
As for `CC(=O)N[C@H](C(=O)N[C@@H](Cc1c[nH]cn1)C(=O)N[C@H](C(=O)N[C@@H](Cc1ccccc1)C(=O)O)C(C)C)C(C)C` [N-acetylated VHVF] (Ac-VHVF-OH), the inhibition at 10 µM under setting [5] stood at 31%. In addition, the inhibition at 100 µM under setting [1] is 76%.
Take `CC[C@H](C)[C@H](N)C(=O)N[C@@H](CCCNC(=N)N)C(=O)N1CCC[C@H]1C(=O)N[C@@H](Cc1ccccc1)C(=O)O` [IRPF] (H-IRPF-OH): under setting [3], the inhibition at 100 µM turned out to be 33%.
Take `CC[C@H](C)[C@H](N)C(=O)N[C@H](C(=O)N1CCC[C@H]1C(=O)N[C@@H](Cc1ccccc1)C(=O)O)C(C)C` [IVPF] (H-IVPF-OH): the inhibition at 100 µM under setting [3] was determined as 28%.
Turning to `CC(C)[C@H](N)C(=O)N[C@@H](Cc1c[nH]cn1)C(=O)N[C@H](C(=O)N[C@@H](Cc1ccccc1)C(=O)O)C(C)C` [VHVF] (H-VHVF-OH), the inhibition at 100 µM reads like this: under setting [4], 85%; under setting [1], 85%. The inhibition at 10 µM under setting [5] turned out to be 37%.
Turning to `CC[C@H](C)[C@H](N)C(=O)N[C@@H](C)C(=O)N1CCC[C@H]1C(=O)N[C@@H](Cc1ccccc1)C(=O)O` [IAPF] (H-IAPF-OH), the inhibition at 100 µM under setting [3] turned out to be 37%.
Turning to `CC[C@H](C)[C@H](N)C(=O)N[C@@H](Cc1c[nH]cn1)C(=O)N[C@@H](CC(C)C)C(=O)N[C@@H](Cc1ccccc1)C(=O)O` [IHLF] (H-IHLF-OH), the inhibition at 100 µM under setting [3] was determined as 0%.
As to `N[C@@H](Cc1ccccc1)C(=O)N[C@@H](Cc1c[nH]cn1)C(=O)N1CCC[C@H]1C(=O)N[C@@H](Cc1ccccc1)C(=O)O` [FHPF] (H-FHPF-OH), under setting [3], the inhibition at 100 µM is 48%.
The same measure, in the same setting: with `CC[C@H](C)[C@H](N)C(=O)N[C@@H](Cc1c[nH]cn1)C(=O)N[C@@H](C)C(=O)N[C@@H](Cc1ccccc1)C(=O)O` [IHAF] (H-IHAF-OH) the figure was 19%.
On to `CC[C@H](C)[C@H](NC(C)=O)C(=O)N[C@@H](Cc1c[nH]cn1)C(=O)N1CCC[C@H]1C(=O)N[C@@H](Cc1ccccc1)C(N)=O` [N-acetylated/C-amidated IHPF] (Ac-IHPF-NH2), for which the inhibition at 100 µM under setting [1] turned out to be 26%.
As to `N[C@@H](Cc1c[nH]c2ccccc12)C(=O)N[C@@H](Cc1c[nH]cn1)C(=O)N1CCC[C@H]1C(=O)N[C@@H](Cc1ccccc1)C(=O)O` [WHPF] (H-WHPF-OH), under setting [3], the inhibition at 100 µM came to 0%.
As for `CC[C@H](C)[C@H](N)C(=O)N[C@@H](Cc1ccc(O)cc1)C(=O)N1CCC[C@H]1C(=O)N[C@@H](Cc1ccccc1)C(=O)O` [IYPF] (H-IYPF-OH), the inhibition at 100 µM reads like this: under setting [3], 87%; under setting [1], 84%. Also, under setting [5], the inhibition at 10 µM amounted to 35%.
Take `CC[C@H](C)[C@H](N)C(=O)N[C@@H](Cc1c[nH]cn1)C(=O)N[C@H](C(=O)N[C@@H](Cc1ccccc1)C(=O)O)C(C)C` [IHVF] (H-IHVF-OH): the inhibition at 100 µM reads like this: under setting [3], 77%; under setting [4], 77%.
Take `CC(=O)N1CCC[C@H]1C(=O)N[C@@H](Cc1ccc(O)cc1)C(=O)N1CCC[C@H]1C(=O)N[C@@H](Cc1ccccc1)C(N)=O` [N-acetylated/C-amidated PYPF] (Ac-PYPF-NH2): under setting [2], the inhibition at 100 µM is 28%.
Turning to `CC(C)[C@H](NC(=O)[C@H](Cc1ccc(O)cc1)NC(=O)[C@@H]1CCCN1)C(=O)N[C@@H](Cc1ccccc1)C(N)=O` [C-amidated PYVF] (H-PYVF-NH2), the inhibition at 100 µM under setting [1] came out at 26%.
